Test results from patent US8614021B2, “Agents for enhanced charge transport across microbial membranes” (The United States of America as represented by the …, priority 2010, dated 2013).
Entries after “also recorded” stand apart in the source; their conditions may differ. Where two headings read alike, the source gives them in different places. One block for each compound: values may come before it.

Experiments:
Baker's yeast = test: Yeast cell staining, confocal/epi-fluorescence imaging; format: cell-based; settings: for accumulation within cell membranes (fluorescence images): 100 μM, 1 hour of shaking, excitation 488 nm
Procedure: Stock solutions of DSSN+ and DSBN+ (1-5 mM, typically 5 mL) were prepared in pH 7.3 phosphate buffer. […] Cultures were never allowed to exceed an optical density of 6. In a typical cell staining run a 1 mL sample was transferred to 1.5 mL Eppendorf tube and the growth media was removed by centrifugation of cells followed by decanting of the growth media. The cells were then re-suspended in phosphate buffer and an appropriate volume of oligoelectrolyte stock solution was added to achieve a 10-100 μM concentration of DSSN+ or DSBN+. The cells were then shaken lightly for 10-180 min at room temperature. The cells can then be imaged directly or following buffer exchange via centrifugation and cell re-suspension. In an alternate procedure, as is the same staining (membrane incorporation) procedure performed with MFC inoculation samples, the cells are simply stained (by addition of COE stock solutions prepared in growth media to culture samples) and imaged directly in the original growth media. […] Sample preparation is completed by depositing a ˜3-6 μL aliquot of stained cell solution onto a traditional slide followed by a cover slip (in this case the slide is inverted and placed over a water or oil immersion objective interfaced with either a Nikon or Leica confocal fluorescence microscope). […]
FIG. 8 consists of two sets of confocal microscopy fluorescence images of Baker's yeast, each stained and imaged in a 100 μM solution of DSSN+ (FIG. 8A) or DSBN+ (FIG. 8B) after 1 hour of shaking without exchanging the staining media.
The ability of DSBN+ and DSSN+ to be passed on to or exist within cell membranes of subsequent yeast generations born over the course of MFC operation was also investigated. […] Cells from each of these aliquots were imaged using a confocal microscope in epi-fluorescence mode and brightfield mode. […] FIG. 11B is an epi-fluorescence and brightfield image (inset, lower left) of a small group of yeast cells removed from the same MFC on the fourth day of operation.

yeast = test: Yeast microbial fuel cell (U-tube MFC) voltage production; format: cell-based; settings: for Maximum voltage (Vmax): across a 10 kΩ resistor
From the text: Two-chamber MFCs were constructed in a similar fashion as previously described (Milliken, C. E.; May, H. D. Appl. Microbiol. Biotechnol. 2007, 73, 1180-1189; Sund, C. J.; Wong, M. S.; Sumner, J. J. Biosens. Bioelectron. 2009, 24, 3144-3147; Sund, C. J.; McMasters, S.; Crittenden, S. R.; Harrell, L. E.; Sumner, J. J. Appl. Microbiol. Biotechnol. 2007, 76, 561-568) with some modifications and pictured in FIG. 9. The anodes and cathodes consisted of carbon felt (100% Activated Carbon Fiber Filter, CarboPur Technologies, Montreal, Canada), ⅛ inch thick, cut to the dimensions of 5 cm by 1 cm. The carbon felts were attached to 0.25 mm diameter titanium wires (AlfaAesar, Ward Hill, Mass.) as electrical leads. A new piece of Nafion® 117 (DuPont, Wilmington, Del., USA) was used for each fuel cell. Anode wires were passed through silicone rubber septa used to seal the anode compartment following inoculation while the cathode compartment was covered with a loose-fitting glass vial. Each fuel cell compartment was filled with 20 ml of media and autoclaved. Inoculation of MFCs consisted of addition of 300 μL of stained (25 μM COE) or unstained yeast stock solution (O.D.=1.75). Methylene blue was added separately as a stock solution (0.1% by weight, 2.67 mM) for the positive control runs employing this mediator. MFCs were incubated in an aerobic 30° C. incubator and the potential across a 10 kΩ resistor was measured and recorded every 10 seconds via a DAQPad-6016 and a custom LabView® VI (National Instruments, Austin, Tex., USA).
A U-tube type MFC (Milliken, C. E.; May, H. D. Appl. Microbiol. Biotechnol. 2007, 73, 1180-1189; Sund, C. J.; Wong, M. S.; Sumner, J. J. Biosens. Bioelectron. 2009, 24, 3144-3147; Sund, C. J.; McMasters, S.; Crittenden, S. R.; Harrell, L. E.; Sumner, J. J. Appl. Microbiol. Biotechnol. 2007, 76, 561-568) (FIG. 9) was employed to test and compare the performance of a series of yeast MFCs employing nM concentrations of DSSN+ and DSBN+ to the performance of a series of negative controls with no external mediator and a series of positive controls employing the common electron transport mediator methylene blue in μM concentrations. The details of MFC construction, preparation, and evaluation are discussed in detail in the section entitled “Microbial fuel cell preparation and assembly.” MFC performance was evaluated in terms of voltage instead of current. Voltage readings were obtained as a function of current across a 10 kΩ resistor.

[1] = UV-Vis absorption and photoluminescence (PL) spectroscopy in solvents of varying polarity; settings: for η (quantum efficiency): relative to a fluorescein standard at pH 12
From the text: General photophysical and solvatochromatic features of the neutral (DSSN, DSBN) and charged (DSSN+, DSBN+) versions of each chromophore were probed by using UV-Vis absorption and photoluminescence (PL) spectroscopies.

[2] = UV-Vis absorbance and PL spectroscopy of oligoelectrolytes embedded in lipid bilayers (DMPC vesicles); settings: for εmax / λabs / λem / η: lipid bilayer; for blue (hypsochromic) shift in λem / red (bathochromic) shift in λabs: lipid bilayer (DMPC vesicle membranes) compared to water / pH 7.3 HEPES buffer; for η: relative to a fluorescein standard at pH 12
Procedure: In order to prepare a typical membrane modified vesicle sample by sonication a methanolic DMPC solution containing a desired mol % DSBN+ was prepared (a typical solution is 1-5 mole % DSBN+ based on 50 micro-moles of DMPC). The methanol was slowly removed by argon flow while the solution was held at a constant 32-38° C. followed by vacuum oven drying at room temperature until dried to a constant weight. Next, enough H2O or pH 7 HEPES buffer was added to obtain a solution with a concentration of ˜1-20 mg/mL depending upon application (imaging or photoluminescence measurement for example). This solution was then sonicated at 40-50° C. for 0.5-7 hours, typically until the solution had lost most of its turbidity. This generates multi-lamellar vesicles. Uni-lamellar vesicles with diameters of ˜450 nm (with a somewhat broad size distribution based on cryo-TEM images) were formed as the resulting solution was filtered using 0.45 μm pore size syringe filters to yield a slightly turbid solution that must be further diluted to clarity with water or buffer in order to collect UV absorbance or photoluminescence spectra.
Efforts to modify the vesicle membranes with DSBN+ and DSSN+ followed modified literature procedures (Lin, A. J.; Slack, N. L.; Ahmad, A.; George, C. X.; Samuel, C. E.; Safinya, C. R. Biophys. J. 2003, 84, 3307-3316). First, a lipid stock solution containing the desired fraction of either DSSN+ or DSBN+, typically 1-5 mol % relative to lipid, was prepared in methanol. This lipid/COE stock solution was then heated and held above the transition temperature of the lipid (23° C. and 41° C. for DMPC and DPPC, respectively) as the solvent was removed via Argon flushing, followed by vacuum drying to a constant weight. The resulting lipid/COE solid was then suspended in pH=7.3 HEPES buffer to the desired concentration (1-10 mg/mL). Multi-lamellar vesicles were then formed by self-assembly upon sonication of the resulting solution. Uni-lamellar vesicles were prepared by filtration (using 0.45 or 0.2 μm pore size syringe filters) or by extrusion (Olson, F.; Hunt, C. A.; Szoka, F. C.; Vail, W. J.; Papahadjopoulos, D. Biochim. Biophys. Acta. 1979, 557, 9-23; Socaciu, C.; Bojarski, P.; Aberle, L.; Diehl, H. A. Biophys. Chem. 2002, 99, 1-15; Szoka, F.; Olson, F.; Heath, T.; Vail, W.; Mayhew, E.; Papahadjopoulos, D. Biochim. Biophys. Acta. 1980, 601, 559-571).

[3] = Cyclic voltammetry, oxidation of the oligoelectrolytes (current/potential curves); format: physicochemical; settings: vs. Ag/AgCl, 200 mV/s scan rate
[4] = Cyclic voltammetry blocking experiment: transmembrane electron transport across sBLMs to aq. ferricyanide; settings: for transmembrane electron transport across sBLM (current in CV): 2 mol % in DMPC and DPPC sBLMs, aq. ferricyanide, 200 mV/s scan rate
Procedure: Bilayer membranes supported on glassy carbon electrodes were prepared according to a modified literature procedure (Huang, W.; Zhang, Z.; Han, X.; Tang, J.; Wang, J.; Dong, S.; Wang, E. Biophys. J. 2002, 83, 3245-3255; Wu, Z.; Tang, J.; Cheng, Z.; Yang, X.; Wang, E. Anal. Chem. 2000, 72, 6030-6033). […] Electrode surface modification was performed by applying a constant 1.5 V bias for four minutes to a freshly polished glassy carbon electrode submerged in a 0.1 M aq. NaOH solution. Upon completion of this process the electrode was dried via argon steam followed by deposition of a 5 μL aliquot of the desired DMPC membrane forming solution to the electrode surface. The solvent was allowed to evaporate and electrode was immediately placed into phosphate buffer (pH 7.4) to allow the bilayer to assemble over a 0.5 hour time period. The working electrode containing the supported bilayer lipid membrane (sBLM) was then used directly.
Cyclic voltammograms were collected at scan rates of 50-200 mV/sec using a standard three-electrode setup that employed a Pt wire counter electrode, a Ag/AgCl reference electrode and a glassy carbon working electrode (modified or unmodified). All runs were performed in aq. 0.5 M KCl electrolyte solution containing 1 mM potassium ferricyanide (the active redox and indicator species). Oxygen was removed from the system via bubbling Ar through the solution for several minutes prior to data collection. The working electrode was freshly polished between each run prior to voltammogram collection or sBLM formation followed by voltammogram collection. Data was collected within the range of 0-0.4 V potentials relative to Ag/AgCl.
OPVs within a saturated alkane thiol monolayer can facilitate charge tunneling from a metallic electrode to a tethered redox species (Dudek, S. P.; Sikes, H. D.; Chidsey, C. E. D. J. Am. Chem. Soc. 2001, 123, 8033-8038; Sikes, H. D.; Smalley, J. F.; Dudek, S. P.; Cook, A. R.; Newton, M. D.; Chidsey, C. E. D.; Feldberg, S. W. Science. 2001, 291, 1519-1523). A variation of this approach was used in which supported bilayer membranes (sBLM) containing DSSN+, DSBN+ and other control molecules were prepared on the surface of a glassy carbon electrode surface. The sBLM-modified electrodes were then employed in a series of ‘blocking’ experiments in which cyclic voltammetry was used to monitor the reversible […] of aqueous ferricyanide. The unmodified sBLM acts as an insulating layer between the working electrode and the solution containing ferricyanide thereby greatly suppressing the redox current (Wiegand, G.; Arribas-Layton, N.; Hillebrandt, H.; Sackmann, E.; Wagner, P. J. Phys. Chem. B. 2002, 106, 4245-4254; Żebrowska, A.; Krysiński, P.; ? otowski, Z. Bioelectrochemistry. 2002, 56, 179-184). […]

[5] = DMSO; value abstracted from reference (Woo et al. JACS 2005); cited from earlier work

Compound: C[N+](C)(C)CCCCCCN(CCCCCC[N+](C)(C)C)c1ccc(C=Cc2ccc(C=Cc3ccc(N(CCCCCC[N+](C)(C)C)CCCCCC[N+](C)(C)C)cc3)cc2)cc1.[I-].[I-].[I-].[I-] [DSBN+, 1,4-bis(4′-(N,N-bis(6″-(N,N,N-trimethylammonium)hexyl)amino)-styryl)benzene tetraiodide]
- accumulation within cell membranes (fluorescence images) (Baker's yeast): apparent preferential accumulation of the COEs within cell membranes
- Maximum voltage (Vmax) (yeast; 190 nM): ~55 mV
- εmax (molar extinction coefficient at λmax) ([1]; DMSO): 8.2 Lmol^−1cm^−1 × 10^−4
- λabs ([1]; DMSO): 419 nm
- λem ([1]; DMSO): 511 nm
- η (quantum efficiency) ([1]; DMSO): 0.86
- εmax (molar extinction coefficient at λmax) ([1]; water): 6.0 Lmol^−1cm^−1 × 10^−4
- λabs ([1]; water): 406 nm
- λem ([1]; water): 566 nm
- η (quantum efficiency) ([1]; water): 0.33
- εmax [2]: 4.8 Lmol^−1cm^−1 × 10^−4
- λabs [2]: 422 nm
- λem [2]: 474 nm
- blue (hypsochromic) shift in λem [2]: 92 nm
- red (bathochromic) shift in λabs [2]: 16 nm
- η [2]: 0.59
- oxidation potential (Eox) [3]: ~0.55 V
- transmembrane electron transport across sBLM (current in CV) [4]: facilitate transmembrane electron transport; also recorded: display higher currents with respect to the control experiments

Compound: ICCCCCCN(CCCCCCI)c1ccc(C=Cc2ccc(C=Cc3ccc(N(CCCCCCI)CCCCCCI)cc3)cc2)cc1 [DSBN, 1,4-bis(4′-(N,N-bis(6″-iodohexyl)amino)styryl)benzene]
- εmax (molar extinction coefficient at λmax) [5]: 7.8 Lmol^−1cm^−1 × 10^−4
- λabs ([1]; DMSO): 419 nm
- λem ([1]; DMSO): 516 nm
- η (quantum efficiency) ([1]; DMSO): 0.81
- εmax (molar extinction coefficient at λmax) ([1]; THF): 8.5 Lmol^−1cm^−1 × 10^−4
- λabs ([1]; THF): 410 nm
- λem ([1]; THF): 466 nm
- η (quantum efficiency) ([1]; THF): 0.92
- εmax (molar extinction coefficient at λmax) ([1]; toluene): 8.4 Lmol^−1cm^−1 × 10^−4
- λabs ([1]; toluene): 410 nm
- λem ([1]; toluene): 454 nm
- η (quantum efficiency) ([1]; toluene): 0.98

Compound: C[N+](C)(C)CCCCCCN(CCCCCC[N+](C)(C)C)c1ccc(/C=C/c2ccc(/C=C/c3ccc(/C=C/c4ccc(N(CCCCCC[N+](C)(C)C)CCCCCC[N+](C)(C)C)cc4)cc3)cc2)cc1 [DSSN+, 4,4′-bis(4′-(N,N-bis(6″-(N,N,N-trimethylammonium)hexyl)amino)-styryl)stilbene tetraiodide]
- accumulation within cell membranes (fluorescence images) (Baker's yeast): apparent preferential accumulation of the COEs within cell membranes
- presence of mediator in later cell generations (Baker's yeast; yeast stained with 25 μM, removed from MFC on day 4 of operation): demonstrate the presence of this mediator in later cell generations
- increase in voltage production compared to methylene blue (yeast; 190 nM vs 13 μM methylene blue): ~5 fold
- Maximum voltage (Vmax) (yeast; 190 nM): ~200 mV
- εmax (molar extinction coefficient at λmax) ([1]; DMSO): 9.8 Lmol^−1cm^−1 × 10^−4
- λabs ([1]; DMSO): 435 nm
- λem ([1]; DMSO): 596 nm
- η (quantum efficiency) ([1]; DMSO): 0.71
- εmax (molar extinction coefficient at λmax) ([1]; water): 6.6 Lmol^−1cm^−1 × 10^−4
- λabs ([1]; water): 412 nm
- λem ([1]; water): 594 nm
- η (quantum efficiency) ([1]; water): 0.06
- εmax [2]: 8.4 Lmol^−1cm^−1 × 10^−4
- λabs [2]: 433 nm
- λem [2]: 532 nm
- blue (hypsochromic) shift in λem [2]: 62 nm
- red (bathochromic) shift in λabs [2]: 21 nm
- η [2]: 0.85
- oxidation potential (Eox) [3]: ~0.55 V
- transmembrane electron transport across sBLM (current in CV) [4]: facilitate transmembrane electron transport; also recorded: display higher currents with respect to the control experiments
- current response of sBLMs containing DSSN+ instead of DSBN+ ([4]; 2 mol % in sBLMs): greater current response

- εmax (molar extinction coefficient at λmax) ([1]; DMSO): 9.6 Lmol^−1cm^−1 × 10^−4
- λabs ([1]; DMSO): 436 nm
- λem ([1]; DMSO): 602 nm
- η (quantum efficiency) ([1]; DMSO): 0.73
- εmax (molar extinction coefficient at λmax) ([1]; THF): 10.6 Lmol^−1cm^−1 × 10^−4
- λabs ([1]; THF): 426 nm
- λem ([1]; THF): 526 nm
- η (quantum efficiency) ([1]; THF): 0.89
- εmax (molar extinction coefficient at λmax) ([1]; toluene): 10.7 Lmol^−1cm^−1 × 10^−4
- λabs ([1]; toluene): 425 nm
- λem ([1]; toluene): 476 nm
- η (quantum efficiency) ([1]; toluene): 0.95
Compound: ICCCCCCN(CCCCCCI)c1ccc(C=Cc2ccc(C=Cc3ccc(C=Cc4ccc(N(CCCCCCI)CCCCCCI)cc4)cc3)cc2)cc1 [DSSN, 4,4′-bis(4′-(N,N-bis(6″-iodohexyl)amino)styryl)stilbene]

Compound: CCCCCCCCCCCCN(CCCCCCCCCCCC)CCCCCCCCCCCC [TDA, tridodecylamine, reference compound]
- transmembrane electron transport across sBLM (current in CV) [4]: Little to no transmembrane electron transfer occurs; also recorded: featureless

Compound: CN(C)c1ccc2nc3ccc(=[N+](C)C)cc-3sc2c1 [methylene blue, reference compound]
- Maximum voltage (Vmax) (yeast; 13 μM): ~40 mV
